Assay results taken from the supplement of paper PMC10307832.

Key:
Test in all cases: relative viability (nuclei count vs DMSO), 5 days (fraction); higher = more cells survive
HCC-15 = tested on: HCC-15
Procedure, shortened: (§1)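 Nuclei were stained with Hoechst during a one-step fixation (final 0.05% Triton X-100, 1% formaldehyde, 1 ug/ml Hoechst) carried out 5 days after dosing, then counted on 4× images. The cells, lung cancer lines in 1536-well plates, had been dosed by pin tool the day after seeding with one drug alone or a fixed anchor-drug dose plus five library-drug doses (not always all listed) in √10 steps. Relative viability is the nuclei count in treated wells divided by that in vehicle wells, and each value is the median of duplicate plates.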

LCLC-103H = tested on: LCLC-103H
Procedure, shortened: as §1

NCI-H1703 = tested on: NCI-H1703
Procedure, shortened: as §1

NCI-H1648 = tested on: NCI-H1648
Procedure, shortened: as §1

NCI-H522 = tested on: NCI-H522
Procedure, shortened: as §1

NCI-H1299 = tested on: NCI-H1299
Procedure, shortened: as §1

A549 = tested on: A549
Procedure, shortened: as §1

Calu-6 = tested on: Calu-6
Procedure, shortened: as §1

IA-LM = tested on: IA-LM
Procedure, shortened: as §1

UMC-11 = tested on: UMC-11
Procedure, shortened: as §1

EBC-1 = tested on: EBC-1
Procedure, shortened: as §1

NCI-H1623 = tested on: NCI-H1623
Procedure, shortened: as §1

CC1(C)CCC(c2ccc(Cl)cc2)=C(CN2CCN(c3ccc(C(=O)NS(=O)(=O)c4ccc(N[C@H](CCN5CCOCC5)CSc5ccccc5)c(S(=O)(=O)C(F)(F)F)c4)cc3)CC2)C1 [Navitoclax] + NC(=O)Nc1cc(-c2cccc(F)c2)sc1C(=O)N[C@H]1CCCNC1 [AZD7762] (partner 0.2 µM) gave a relative viability (HCC-15; first compound 0.005 µM) of 0.868, a relative viability (HCC-15; first compound 0.01581 µM) of 1.2 and a relative viability (HCC-15; first compound 0.05 µM) of 0.838. The relative viability (HCC-15; first compound 0.1581 µM) was 1.03, the relative viability (HCC-15; first compound 0.5 µM) was 1.05 and the relative viability (LCLC-103H; first compound 0.005 µM) was 0.806. For the same compound, the relative viability (LCLC-103H; first compound 0.01581 µM) was 0.839, the relative viability (LCLC-103H; first compound 0.05 µM) was 0.736 and the relative viability (LCLC-103H; first compound 0.1581 µM) was 0.826. For the same compound, the relative viability (LCLC-103H; first compound 0.5 µM) was 0.8, the relative viability (NCI-H1703; first compound 0.005 µM) was 0.128 and the relative viability (NCI-H1703; first compound 0.01581 µM) was 0.161. The relative viability (NCI-H1703; first compound 0.05 µM) was 0.149, the relative viability (NCI-H1703; first compound 0.5 µM) was 0.122 and the relative viability (NCI-H1648; first compound 0.005 µM) was 0.799. For the same compound, the relative viability (NCI-H1648; first compound 0.01581 µM) was 0.669, the relative viability (NCI-H1648; first compound 0.1581 µM) was 0.667 and the relative viability (NCI-H1648; first compound 0.5 µM) was 0.604. It also gave a relative viability (NCI-H522; first compound 0.005 µM) of 0.748, a relative viability (NCI-H522; first compound 0.01581 µM) of 0.987 and a relative viability (NCI-H522; first compound 0.05 µM) of 1.12. For the same compound, the relative viability (NCI-H522; first compound 0.1581 µM) was 0.832 and the relative viability (NCI-H522; first compound 0.5 µM) was 0.9.

Work on CC1(C)CCC(c2ccc(Cl)cc2)=C(CN2CCN(c3ccc(C(=O)NS(=O)(=O)c4ccc(N[C@H](CCN5CCOCC5)CSc5ccccc5)c(S(=O)(=O)C(F)(F)F)c4)cc3)CC2)C1 [Navitoclax] + O=C(c1cc(Cc2n[nH]c(=O)c3ccccc23)ccc1F)N1CCN(C(=O)C2CC2)CC1 [Olaparib] (partner 8 µM) yielded a relative viability (NCI-H1299; first compound 0.005 µM) of 0.943, a relative viability (NCI-H1299; first compound 0.01581 µM) of 1 and a relative viability (NCI-H1299; first compound 0.05 µM) of 0.949. For the same compound, the relative viability (NCI-H1299; first compound 0.1581 µM) was 0.977, the relative viability (NCI-H1299; first compound 0.5 µM) was 0.956 and the relative viability (HCC-15; first compound 0.005 µM) was 0.716. For the same compound, the relative viability (HCC-15; first compound 0.01581 µM) was 0.787, the relative viability (HCC-15; first compound 0.05 µM) was 0.626 and the relative viability (HCC-15; first compound 0.1581 µM) was 0.67. The relative viability (HCC-15; first compound 0.5 µM) was 0.778, the relative viability (A549; first compound 0.005 µM) was 0.37 and the relative viability (A549; first compound 0.01581 µM) was 0.33. The relative viability (A549; first compound 0.05 µM) was 0.119, the relative viability (A549; first compound 0.1581 µM) was 0.33 and the relative viability (A549; first compound 0.5 µM) was 0.302. For the same compound, the relative viability (Calu-6; first compound 0.005 µM) was 0.57, the relative viability (Calu-6; first compound 0.01581 µM) was 0.518 and the relative viability (Calu-6; first compound 0.05 µM) was 0.558. For the same compound, the relative viability (Calu-6; first compound 0.1581 µM) was 0.457, the relative viability (Calu-6; first compound 0.5 µM) was 0.478 and the relative viability (IA-LM; first compound 0.005 µM) was 0.814. The relative viability (IA-LM; first compound 0.01581 µM) was 0.836, the relative viability (IA-LM; first compound 0.05 µM) was 0.792 and the relative viability (IA-LM; first compound 0.1581 µM) was 0.789. It also gave a relative viability (IA-LM; first compound 0.5 µM) of 0.866, a relative viability (UMC-11; first compound 0.005 µM) of 0.89 and a relative viability (UMC-11; first compound 0.01581 µM) of 0.361. It also gave a relative viability (UMC-11; first compound 0.05 µM) of 0.346, a relative viability (UMC-11; first compound 0.1581 µM) of 0.317 and a relative viability (UMC-11; first compound 0.5 µM) of 0.266. For the same compound, the relative viability (LCLC-103H; first compound 0.005 µM) was 0.715, the relative viability (LCLC-103H; first compound 0.01581 µM) was 0.817 and the relative viability (LCLC-103H; first compound 0.05 µM) was 0.729. The relative viability (LCLC-103H; first compound 0.1581 µM) was 0.738, the relative viability (LCLC-103H; first compound 0.5 µM) was 0.705 and the relative viability (NCI-H1703; first compound 0.005 µM) was 0.536. It also gave a relative viability (NCI-H1703; first compound 0.01581 µM) of 0.626, a relative viability (NCI-H1703; first compound 0.05 µM) of 0.508 and a relative viability (NCI-H1703; first compound 0.1581 µM) of 0.512. It also gave a relative viability (NCI-H1703; first compound 0.5 µM) of 0.536, a relative viability (NCI-H1648; first compound 0.005 µM) of 0.632 and a relative viability (NCI-H1648; first compound 0.01581 µM) of 1.06. The relative viability (NCI-H1648; first compound 0.1581 µM) was 0.922, the relative viability (NCI-H1648; first compound 0.5 µM) was 1.03 and the relative viability (EBC-1; first compound 0.005 µM) was 0.745. For the same compound, the relative viability (EBC-1; first compound 0.01581 µM) was 0.864, the relative viability (EBC-1; first compound 0.05 µM) was 0.658 and the relative viability (EBC-1; first compound 0.1581 µM) was 0.683. For the same compound, the relative viability (EBC-1; first compound 0.5 µM) was 0.663, the relative viability (NCI-H522; first compound 0.005 µM) was 0.657 and the relative viability (NCI-H522; first compound 0.01581 µM) was 0.745. For the same compound, the relative viability (NCI-H522; first compound 0.05 µM) was 0.757, the relative viability (NCI-H522; first compound 0.1581 µM) was 0.542 and the relative viability (NCI-H522; first compound 0.5 µM) was 0.62.

For Oc1nc(-c2ccc(C(F)(F)F)cc2)nc2c1CSCC2 [XAV939] + CCNC(=O)c1noc(-c2cc(C(C)C)c(O)cc2O)c1-c1ccc(CN2CCOCC2)cc1 [Luminespib] (partner 0.01 µM), the relative viability (HCC-15; first compound 0.08 µM) was 0.465, the relative viability (HCC-15; first compound 0.253 µM) was 0.295 and the relative viability (HCC-15; first compound 0.8 µM) was 0.302. For the same compound, the relative viability (HCC-15; first compound 2.53 µM) was 0.235, the relative viability (UMC-11; first compound 0.08 µM) was 1.04 and the relative viability (UMC-11; first compound 0.253 µM) was 0.973. It also gave a relative viability (UMC-11; first compound 0.8 µM) of 1.02, a relative viability (UMC-11; first compound 2.53 µM) of 0.886 and a relative viability (LCLC-103H; first compound 0.08 µM) of 1.09. The relative viability (LCLC-103H; first compound 0.253 µM) was 0.934, the relative viability (LCLC-103H; first compound 0.8 µM) was 0.971 and the relative viability (LCLC-103H; first compound 2.53 µM) was 0.799. The relative viability (NCI-H1623; first compound 0.08 µM) was 0.493, the relative viability (NCI-H1623; first compound 0.253 µM) was 0.432 and the relative viability (NCI-H1623; first compound 0.8 µM) was 0.415. For the same compound, the relative viability (NCI-H1623; first compound 2.53 µM) was 0.357, the relative viability (NCI-H522; first compound 0.08 µM) was 1.45 and the relative viability (NCI-H522; first compound 0.253 µM) was 1.24. For the same compound, the relative viability (NCI-H522; first compound 0.8 µM) was 1.05 and the relative viability (NCI-H522; first compound 2.53 µM) was 1.09.
